The target in test [1] is Potassium voltage-gated channel subfamily KQT member 2 (Rattus norvegicus, UniProt O88943). In words: KCNQ2 potassium channel inhibitors, dose response, cell-based, automated electrophysiology, set II, rat KCNQ2 (AID 588637). The test is classed as functional.
For test [2], the target named is Mitochondrial peptide methionine sulfoxide reductase (Bos taurus, UniProt P54149). Briefly: Absorbance-based biochemical high throughput dose response assay for activators of Methionine sulfoxide reductase A (MsrA). It is filed as functional.
Test [3] concerns the target T1, Histone-lysine N-methyltransferase NSD2 (Homo sapiens, UniProt O96028).
T1 sequence (O96028 whole entry): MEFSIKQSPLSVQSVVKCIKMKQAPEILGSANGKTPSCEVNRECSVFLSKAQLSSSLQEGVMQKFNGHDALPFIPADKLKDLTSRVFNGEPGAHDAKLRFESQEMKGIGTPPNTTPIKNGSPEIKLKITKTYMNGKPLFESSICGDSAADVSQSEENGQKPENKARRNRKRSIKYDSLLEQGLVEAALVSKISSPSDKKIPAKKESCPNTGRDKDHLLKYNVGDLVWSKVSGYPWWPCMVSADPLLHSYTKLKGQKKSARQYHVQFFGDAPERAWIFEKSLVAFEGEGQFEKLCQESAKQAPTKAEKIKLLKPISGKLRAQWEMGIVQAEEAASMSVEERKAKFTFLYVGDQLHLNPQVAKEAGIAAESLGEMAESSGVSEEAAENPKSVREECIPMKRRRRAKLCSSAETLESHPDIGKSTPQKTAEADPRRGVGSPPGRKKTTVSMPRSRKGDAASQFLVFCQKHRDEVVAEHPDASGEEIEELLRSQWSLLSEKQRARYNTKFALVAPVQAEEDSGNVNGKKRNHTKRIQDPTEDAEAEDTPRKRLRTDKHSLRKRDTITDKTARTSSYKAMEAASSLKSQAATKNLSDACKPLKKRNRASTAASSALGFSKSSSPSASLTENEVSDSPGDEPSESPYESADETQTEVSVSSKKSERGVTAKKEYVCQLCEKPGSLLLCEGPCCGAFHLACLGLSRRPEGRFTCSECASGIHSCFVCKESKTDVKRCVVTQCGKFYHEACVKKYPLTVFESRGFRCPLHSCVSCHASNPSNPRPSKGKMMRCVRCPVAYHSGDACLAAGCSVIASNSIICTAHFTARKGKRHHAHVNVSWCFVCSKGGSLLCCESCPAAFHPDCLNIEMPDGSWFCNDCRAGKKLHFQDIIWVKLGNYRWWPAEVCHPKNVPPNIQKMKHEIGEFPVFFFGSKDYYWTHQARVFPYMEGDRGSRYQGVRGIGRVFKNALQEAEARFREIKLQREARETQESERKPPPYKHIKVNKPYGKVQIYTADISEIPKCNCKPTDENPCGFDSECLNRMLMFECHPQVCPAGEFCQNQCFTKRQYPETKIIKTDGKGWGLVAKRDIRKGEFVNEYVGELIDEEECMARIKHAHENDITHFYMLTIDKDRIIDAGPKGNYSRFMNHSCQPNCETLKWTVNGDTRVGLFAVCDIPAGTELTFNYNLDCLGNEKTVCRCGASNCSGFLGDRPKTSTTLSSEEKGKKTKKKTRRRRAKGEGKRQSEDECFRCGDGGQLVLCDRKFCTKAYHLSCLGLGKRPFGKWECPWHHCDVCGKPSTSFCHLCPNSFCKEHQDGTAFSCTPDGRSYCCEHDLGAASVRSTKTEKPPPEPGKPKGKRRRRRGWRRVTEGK
It is filed as biochemical.

For the next test, the target named is Paired box protein Pax-8 (Homo sapiens, UniProt Q06710). In words: inhibitors of PAX8-driven TPO luciferase reporter, dose response, RMG-I cells, cherry-pick (AID 687027).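 Note: luciferase reporter driven by Pax8 target thyroperoxidase promoter measured by SteadyGlo luminescence.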 The test is classed as functional, cell-based. A general note: A reporter such as luciferase makes a cellular process visible.
Test [4] addresses Tyrosyl-DNA phosphodiesterase 2 (Homo sapiens, UniProt O95551). Briefly: human TDP2 enzyme inhibitors, dose response, biochemical, epi absorbance, IC50 (AID 743297).
Test [5] is described as follows: Luminescence Cell-Based Dose Response HTS to Identify Inhibitors of 5'UTR Stem-Loop Driven Prion Protein mRNA Translation in H4 Neuroglioblastoma Cells. [Related pubchem assays: 1827 (Project Summary), 1813 (Primary HTS)]. It is filed as functional.
Test [6] addresses Induced myeloid leukemia cell differentiation protein Mcl-1 (Homo sapiens, UniProt Q07820). The test is classed as functional.
Test [7] in a line: AlphaScreen signal interference compounds, dose response, artefact control for ARNT-TACC3 interaction inhibitor project, biochemical, luminescence, cherry-pick (AID 651705).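 Note: AlphaScreen bead proximity signal that flags compounds interfering with the detection technology; potency reflects signal decrease which marks the compound as an assay artifact.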 It is filed as functional. In general terms: In Alpha technology, singlet oxygen from a donor bead excites a nearby acceptor bead.
The nature of test [8]: inhibitors of firefly luciferase expression or activity, dose response, H4 neuroglioma cells, luminescence (AID 1990). It is filed as functional, cell-based.
Test [9] is described as follows: inhibitors of SNCA 5'UTR-driven reporter translation, confirmation, H4 neuroglioma cells, luminescence (AID 1988). It is filed as functional, cell-based.
For test [10], the target named is T2, ATP-dependent translocase ABCB1 (Homo sapiens, UniProt P08183). Briefly: ABCG2 efflux pump inhibitor potency, dose response, Ig-MXP3 cells, JC-1, flow cytometry, set 2 (AID 504566).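 Note: flow cytometry median green fluorescence of retained JC-1 dye; potency of efflux pump inhibition measured as rising substrate retention.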 The settings on record: read-out: EC50_MICROM_. It is filed as functional.
In test [11] the target is T2, ATP-dependent translocase ABCB1. Briefly: ABCB1 efflux inhibitor potency, dose response, Jurkat-DNR cells, JC-1, flow cytometry, set 2 (AID 504569).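 Note: potency of pump inhibitors that raise cellular JC-1 green fluorescence up to the nicardipine level.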 It is filed as functional. Conditions: read-out: EC50_MICROM_. On the technique in general: In flow cytometry, cells or beads pass a laser one at a time.
Test [12] addresses T3, Low molecular weight phosphotyrosine protein phosphatase (Homo sapiens, UniProt P24666). It is filed as functional. The settings on record: read-out: IC50_Mean.
Test [13] deals with T4, Tyrosine-protein phosphatase non-receptor type 22 (Homo sapiens, UniProt Q9Y2R2).
T4 sequence (Q9Y2R2 whole entry): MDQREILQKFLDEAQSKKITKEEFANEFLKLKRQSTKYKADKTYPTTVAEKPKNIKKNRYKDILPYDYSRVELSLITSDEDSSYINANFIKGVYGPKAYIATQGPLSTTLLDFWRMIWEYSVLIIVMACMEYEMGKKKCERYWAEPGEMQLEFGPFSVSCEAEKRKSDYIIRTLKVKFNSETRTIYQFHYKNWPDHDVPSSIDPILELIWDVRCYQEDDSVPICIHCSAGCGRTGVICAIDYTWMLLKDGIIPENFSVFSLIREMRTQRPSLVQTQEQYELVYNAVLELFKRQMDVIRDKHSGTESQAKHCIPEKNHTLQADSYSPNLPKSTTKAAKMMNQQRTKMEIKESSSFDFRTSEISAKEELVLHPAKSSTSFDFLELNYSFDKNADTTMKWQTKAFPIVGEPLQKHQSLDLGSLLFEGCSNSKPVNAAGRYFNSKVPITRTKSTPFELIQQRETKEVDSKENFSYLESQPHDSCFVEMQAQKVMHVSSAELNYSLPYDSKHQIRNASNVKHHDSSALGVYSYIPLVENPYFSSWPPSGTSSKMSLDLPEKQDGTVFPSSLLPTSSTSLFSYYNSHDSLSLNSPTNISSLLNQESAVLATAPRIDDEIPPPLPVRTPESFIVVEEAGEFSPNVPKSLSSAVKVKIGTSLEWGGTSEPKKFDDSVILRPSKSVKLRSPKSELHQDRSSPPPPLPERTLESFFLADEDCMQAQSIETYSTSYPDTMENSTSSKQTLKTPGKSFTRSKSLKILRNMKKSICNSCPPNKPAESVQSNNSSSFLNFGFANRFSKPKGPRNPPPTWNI
In words: LYP phosphatase inhibition for selectivity, dose response, selectivity assay for LMPTP inhibitor project, biochemical, fluorescence, LYP catalytic domain (AID 652006). It is filed as functional. The settings on record: read-out: IC50_Mean.

Test [14] deals with T3, Low molecular weight phosphotyrosine protein phosphatase. The test is classed as functional. The settings on record: read-out: IC50_Mean. This is another data set of the same source.
Test [15] addresses Platelet-activating factor acetylhydrolase (Mus musculus, UniProt Q60963). Briefly: Late stage assay provider results from the probe development effort to identify inhibitors of pPAFAH: fluorescence-based dose-response biochemical gel-based competitive Activity-Based Protein Profiling (ABPP) assay for SAR compounds. The test is classed as functional.
The nature of test [16]: ARNT/TACC3 interaction disruptors, potency, confirmation, biochemical, AlphaScreen, cherry-picked samples (AID 651703).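 Note: His-tagged ARNT PAS-B domain paired with GST-TACC3 E629A dimer coactivator fragment; potency of inhibitors that break up the complex and lower AlphaScreen signal.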 It is filed as functional, Homo sapiens.

Active and inactive are the calls of the source. Some results are limits rather than exact numbers.

T3 sequence (P24666 whole entry): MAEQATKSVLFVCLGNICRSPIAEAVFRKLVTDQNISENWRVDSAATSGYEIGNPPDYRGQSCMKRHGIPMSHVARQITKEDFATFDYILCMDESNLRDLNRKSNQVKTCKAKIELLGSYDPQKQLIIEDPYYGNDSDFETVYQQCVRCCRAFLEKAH
T2 sequence (P08183 whole entry): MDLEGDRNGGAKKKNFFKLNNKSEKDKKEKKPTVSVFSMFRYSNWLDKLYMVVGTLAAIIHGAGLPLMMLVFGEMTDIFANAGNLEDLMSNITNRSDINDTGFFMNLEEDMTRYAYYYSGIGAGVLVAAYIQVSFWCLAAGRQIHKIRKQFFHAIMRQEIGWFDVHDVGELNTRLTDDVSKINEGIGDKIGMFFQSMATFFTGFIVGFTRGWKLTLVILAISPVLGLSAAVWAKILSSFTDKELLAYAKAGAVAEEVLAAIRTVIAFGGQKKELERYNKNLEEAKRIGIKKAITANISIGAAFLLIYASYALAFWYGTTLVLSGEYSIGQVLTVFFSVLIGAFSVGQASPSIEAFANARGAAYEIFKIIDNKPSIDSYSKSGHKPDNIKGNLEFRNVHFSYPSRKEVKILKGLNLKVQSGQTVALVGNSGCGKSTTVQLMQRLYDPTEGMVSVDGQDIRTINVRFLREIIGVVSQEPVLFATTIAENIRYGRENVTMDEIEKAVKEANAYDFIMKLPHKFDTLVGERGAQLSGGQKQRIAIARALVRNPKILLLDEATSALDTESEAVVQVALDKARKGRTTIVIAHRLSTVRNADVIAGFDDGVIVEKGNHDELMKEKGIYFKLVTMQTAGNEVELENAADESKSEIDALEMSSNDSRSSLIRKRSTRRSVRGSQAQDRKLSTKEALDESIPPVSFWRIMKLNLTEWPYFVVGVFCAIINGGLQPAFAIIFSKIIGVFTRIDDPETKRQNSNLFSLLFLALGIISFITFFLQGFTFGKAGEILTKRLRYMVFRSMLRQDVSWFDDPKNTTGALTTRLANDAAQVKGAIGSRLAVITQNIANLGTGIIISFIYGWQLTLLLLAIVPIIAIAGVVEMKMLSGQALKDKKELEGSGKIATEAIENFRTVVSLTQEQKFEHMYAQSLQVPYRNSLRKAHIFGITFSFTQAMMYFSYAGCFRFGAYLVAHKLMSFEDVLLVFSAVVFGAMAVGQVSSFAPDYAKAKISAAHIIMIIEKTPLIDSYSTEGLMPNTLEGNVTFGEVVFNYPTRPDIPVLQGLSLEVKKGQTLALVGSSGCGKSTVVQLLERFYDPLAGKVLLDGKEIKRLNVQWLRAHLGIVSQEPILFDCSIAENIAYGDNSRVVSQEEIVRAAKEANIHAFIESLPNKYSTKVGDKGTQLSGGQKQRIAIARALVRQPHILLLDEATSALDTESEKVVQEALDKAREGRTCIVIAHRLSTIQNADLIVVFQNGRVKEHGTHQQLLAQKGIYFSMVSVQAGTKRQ
Sequence of Mitochondrial peptide methionine sulfoxide reductase (P54149 whole entry): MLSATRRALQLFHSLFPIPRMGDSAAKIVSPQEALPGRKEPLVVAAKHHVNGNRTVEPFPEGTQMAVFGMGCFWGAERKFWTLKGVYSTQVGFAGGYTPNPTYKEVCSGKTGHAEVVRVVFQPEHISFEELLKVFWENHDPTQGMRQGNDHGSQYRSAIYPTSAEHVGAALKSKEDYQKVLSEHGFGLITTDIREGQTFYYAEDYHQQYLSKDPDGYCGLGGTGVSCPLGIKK
Sequence of Paired box protein Pax-8 (Q06710 whole entry): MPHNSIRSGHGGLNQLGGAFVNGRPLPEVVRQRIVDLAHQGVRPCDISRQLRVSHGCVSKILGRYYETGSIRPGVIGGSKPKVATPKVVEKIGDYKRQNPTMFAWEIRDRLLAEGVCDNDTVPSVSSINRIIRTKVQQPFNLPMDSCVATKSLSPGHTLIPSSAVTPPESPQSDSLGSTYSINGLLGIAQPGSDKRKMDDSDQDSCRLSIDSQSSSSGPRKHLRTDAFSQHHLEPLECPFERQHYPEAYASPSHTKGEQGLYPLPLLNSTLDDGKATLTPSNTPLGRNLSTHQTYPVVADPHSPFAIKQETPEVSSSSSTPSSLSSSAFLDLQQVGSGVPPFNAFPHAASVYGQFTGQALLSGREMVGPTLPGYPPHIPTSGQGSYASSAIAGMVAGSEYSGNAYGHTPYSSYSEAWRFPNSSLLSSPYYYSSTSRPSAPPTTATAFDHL
Sequence of Induced myeloid leukemia cell differentiation protein Mcl-1 (Q07820 whole entry): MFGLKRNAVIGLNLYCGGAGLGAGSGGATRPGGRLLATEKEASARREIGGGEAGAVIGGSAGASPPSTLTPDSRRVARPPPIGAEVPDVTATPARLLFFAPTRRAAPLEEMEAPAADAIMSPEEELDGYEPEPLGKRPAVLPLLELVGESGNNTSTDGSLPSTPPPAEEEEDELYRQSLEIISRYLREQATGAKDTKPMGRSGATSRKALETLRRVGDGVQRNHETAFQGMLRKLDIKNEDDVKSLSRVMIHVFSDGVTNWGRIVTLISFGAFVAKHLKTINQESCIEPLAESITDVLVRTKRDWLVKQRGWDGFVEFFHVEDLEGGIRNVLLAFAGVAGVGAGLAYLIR
Sequence of Platelet-activating factor acetylhydrolase (Q60963 whole entry, the tested form may be a part): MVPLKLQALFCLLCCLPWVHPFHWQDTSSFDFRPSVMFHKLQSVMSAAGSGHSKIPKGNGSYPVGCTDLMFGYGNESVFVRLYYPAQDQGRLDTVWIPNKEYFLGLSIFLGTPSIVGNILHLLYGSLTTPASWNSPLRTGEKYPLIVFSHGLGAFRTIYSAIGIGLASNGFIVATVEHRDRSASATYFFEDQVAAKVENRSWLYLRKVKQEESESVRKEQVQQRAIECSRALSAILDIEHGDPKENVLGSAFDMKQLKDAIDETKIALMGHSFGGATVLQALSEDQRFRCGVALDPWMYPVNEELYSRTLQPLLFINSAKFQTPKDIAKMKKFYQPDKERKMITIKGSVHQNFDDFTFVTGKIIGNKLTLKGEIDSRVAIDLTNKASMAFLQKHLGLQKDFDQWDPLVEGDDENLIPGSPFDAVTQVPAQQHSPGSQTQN
Sequence of Potassium voltage-gated channel subfamily KQT member 2 (O88943 whole entry): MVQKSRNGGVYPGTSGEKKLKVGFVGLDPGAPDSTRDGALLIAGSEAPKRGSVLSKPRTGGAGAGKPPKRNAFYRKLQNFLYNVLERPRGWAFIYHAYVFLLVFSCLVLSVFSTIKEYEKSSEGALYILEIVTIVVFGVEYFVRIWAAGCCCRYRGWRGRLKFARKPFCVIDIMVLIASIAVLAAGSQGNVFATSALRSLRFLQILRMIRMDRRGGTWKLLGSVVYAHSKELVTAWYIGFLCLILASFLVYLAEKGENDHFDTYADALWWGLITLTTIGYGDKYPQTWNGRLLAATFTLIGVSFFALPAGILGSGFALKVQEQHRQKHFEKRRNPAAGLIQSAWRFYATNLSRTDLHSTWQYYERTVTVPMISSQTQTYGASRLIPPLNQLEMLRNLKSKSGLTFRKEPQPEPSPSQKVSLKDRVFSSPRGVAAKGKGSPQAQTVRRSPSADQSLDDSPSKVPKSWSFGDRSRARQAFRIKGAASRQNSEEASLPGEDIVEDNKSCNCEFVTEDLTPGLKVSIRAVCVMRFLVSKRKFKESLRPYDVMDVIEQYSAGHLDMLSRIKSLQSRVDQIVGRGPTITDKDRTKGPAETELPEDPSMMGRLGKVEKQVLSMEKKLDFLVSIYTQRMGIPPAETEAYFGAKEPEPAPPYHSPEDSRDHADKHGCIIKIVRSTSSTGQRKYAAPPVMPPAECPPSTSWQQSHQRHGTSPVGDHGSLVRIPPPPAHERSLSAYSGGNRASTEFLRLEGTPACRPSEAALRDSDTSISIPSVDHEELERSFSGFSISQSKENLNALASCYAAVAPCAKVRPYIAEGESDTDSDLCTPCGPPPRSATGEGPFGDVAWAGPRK
Sequence of Tyrosyl-DNA phosphodiesterase 2 (O95551 whole entry): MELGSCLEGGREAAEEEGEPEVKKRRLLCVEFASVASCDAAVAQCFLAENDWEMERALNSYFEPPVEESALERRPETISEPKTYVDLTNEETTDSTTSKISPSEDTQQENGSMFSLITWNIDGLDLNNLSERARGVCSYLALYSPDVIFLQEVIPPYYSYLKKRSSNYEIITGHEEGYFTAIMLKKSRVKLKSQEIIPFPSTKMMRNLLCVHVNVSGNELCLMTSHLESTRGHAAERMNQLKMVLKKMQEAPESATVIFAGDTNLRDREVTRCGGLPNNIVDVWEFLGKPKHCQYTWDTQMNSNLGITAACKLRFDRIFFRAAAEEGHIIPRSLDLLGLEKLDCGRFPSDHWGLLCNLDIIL

For the compound `O=C(COc1ccc(F)cc1)N(c1ccccn1)C1CCCCC1`, the IC50 in test [1] was 1.49 µM (active).

In general, AC50 refers to the midpoint of the concentration-response curve, whichever way the signal moves. In the case of `NC1=CC(=O)C(=O)c2cccnc21`, the EC50 in test [2] is > 34.6 µM (inactive). Further, the AC50 was 0.546 µM (active) in test [3] and 10.5 µM (active) on Paired box protein Pax-8. The IC50 in test [4] is 5.99 µM (active).

As to `COc1cc2c(cc1O)C[C@H]1NCCc3cc4c(c-2c31)OCO4`, the EC50 in test [5] was 85.6 µM (active); in test [8], 13.2 µM (active); in test [9], > 120 µM (not active). In addition, in test [6], the IC50 is 5.61 µM (active). Moreover, the AC50 in test [7] is 84.2 µM (active).

With `O=C(c1ccoc1)N1CCN(c2cc(-c3cccnc3)nc3cc(-c4cccc(Cl)c4)nn23)CC1`, the EC50 in test [10] was 0.26 µM (active); in test [11], 0.97 µM (active).

With `CC(=O)Nc1ccc(CNc2nc(NCc3cccs3)nc3ccsc23)cc1`, the IC50 is 13.6 µM (active) in [12], 49.5 µM (inactive) in test [13] and 15.5 µM (active) in test [14].

Regarding `Cc1cc(N2CCN(C(=O)Oc3ccc(C(F)(F)F)cc3)CC2)c2ccccc2n1`, the IC50 in [15] is 0.041 µM (active).

Take `CN1CCN(/N=C/c2nc(-c3ccccc3Cl)n3ccccc23)CC1`: the AC50 in test [16] was 75.6 µM (active).

(Values after ChEMBL document CHEMBL1201862, “PubChem BioAssay data set” (2004).)
